Test results published in paper PMC12307812 (Nature Communications, 2025).
pIC50: −log10 of the molar value.

Assays:
[1] = tested on: SARS-CoV-2 Delta variant AY.1; test: microbe, parasite or virus in culture; type: cell-based; details: for mean log10(PFU/ml): AY.1; for pIC50: Severe acute respiratory syndrome coronavirus 2, Calu-3, 48 h, read-out: IC50, live SARS-CoV-2 infection AY.1 (Delta)
[2] = tested on: SARS-CoV-2 Omicron variant KP.3.1.1; test: microbe, parasite or virus in culture; type: cell-based; details: for mean log10(PFU/ml): KP.3.1.1; for pIC50: Severe acute respiratory syndrome coronavirus 2, Calu-3, 48 h, read-out: IC50, live SARS-CoV-2 infection KP.3.1.1

| Compound | mean log10(PFU/ml) ([1]; concentration 5 nM) | mean log10(PFU/ml) ([1]; concentration 50 nM) | mean log10(PFU/ml) ([1]; concentration 500 nM) | mean log10(PFU/ml) ([1]; concentration 5000 nM) | mean log10(PFU/ml) ([1]; concentration 50000 nM) | pIC50 [1] | mean log10(PFU/ml) ([2]; concentration 5 nM) | mean log10(PFU/ml) ([2]; concentration 50 nM) | mean log10(PFU/ml) ([2]; concentration 500 nM) | mean log10(PFU/ml) ([2]; concentration 5000 nM) | mean log10(PFU/ml) ([2]; concentration 50000 nM) | pIC50 [2] |
| --- | --- | --- | --- | --- | --- | --- | --- | --- | --- | --- | --- | --- |
| CN(C)C(=O)COC(=O)Cc1ccc(OC(=O)c2ccc(NC(=N)N)cc2)cc1 [camostat] | 7.732 log10(PFU/ml) | 7.059 log10(PFU/ml) | 6.615 log10(PFU/ml) | 4.492 log10(PFU/ml) | 3.6181 log10(PFU/ml) | 7.66 | 7.955 log10(PFU/ml) | 6.207 log10(PFU/ml) | 5.0218 log10(PFU/ml) | 1.958 log10(PFU/ml) | 1.699 log10(PFU/ml) | 7.42 |
| CC(C)(C)NC(=O)N1CCN(C(=O)N2C(=O)C(CCCNC(=N)N)C2C(=O)O)CC1 (stereo not drawn) [BMS-262084] | 7.781 log10(PFU/ml) | 5.891 log10(PFU/ml) | 3.176 log10(PFU/ml) | 2.572 log10(PFU/ml) | 2.538 log10(PFU/ml) | 8.06 | 7.893 log10(PFU/ml) | 4.129 log10(PFU/ml) | 1.9 log10(PFU/ml) | 1.699 log10(PFU/ml) | 1.498 log10(PFU/ml) | 8.10 |
